Source: US10597388B2, “Pyridazinone herbicides” (FMC CORPORATION, priority 2014, dated 2020)

Experiments:
Assay in all cases: Test E greenhouse herbicide test, pre- and postemergence
Format in all cases: in vivo
Settings in all cases: Preemergence
[1] = test system: velvetleaf (Abutilon theophrasti)
Procedure, shortened: (§1)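 Visual ratings, 0 for no effect up to 100 for complete control, were taken relative to controls 14 to 21 d after greenhouse treatment. Applications used a surfactant-containing non-phytotoxic solvent formulation, sprayed either preemergence on silt loam-sown seed or postemergence on 1- to 4-leaf plants 2-18 cm tall in peat-based potting medium.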

[2] = test system: ragweed (common ragweed, Ambrosia elatior)
Procedure, shortened: as §1

[3] = test system: foxtail, giant (giant foxtail, Setaria faberii)
Procedure, shortened: as §1

[4] = test system: horseweed (Conyza canadensis)
Procedure, shortened: as §1

[5] = test system: nightshade (eastern black nightshade, Solanum ptycanthum)
Procedure, shortened: as §1

[6] = test system: lambsquarters (Chenopodium album)
Procedure, shortened: as §1

[7] = test system: goosegrass (Eleusine indica)
Procedure, shortened: as §1

[8] = test system: panicum, fall (fall panicum, Panicum dichotomiflorum)
Procedure, shortened: as §1

[9] = test system: surinam grass (Brachiaria decumbens)
Procedure, shortened: as §1

[10] = test system: pigweed, palmer (palmer pigweed, Amaranthus palmeri)
Procedure, shortened: as §1

[11] = test system: dayflower (Virginia (VA) dayflower, Commelina virginica)
Procedure, shortened: as §1

[12] = test system: crabgrass, large (large crabgrass, Digitaria sanguinalis)
Procedure, shortened: as §1

[13] = test system: arrowleaf sida (Sida rhombifolia)
Procedure, shortened: as §1

[14] = test system: barnyardgrass (Echinochloa crus-galli)
Procedure, shortened: as §1

[15] = test system: corn (Zea mays)
Procedure, shortened: as §1

[16] = test system: sandbur (southem sandbur, Cenchrus echinatus)
Procedure, shortened: as §1

[17] = test system: momingglory (Ipomoea coccinea)
Procedure, shortened: as §1

[18] = 62 g ai/ha, scale 0 to 100 (0 no effect, 100 complete control)
[19] = 125 g ai/ha, scale 0 to 100 (0 no effect, 100 complete control)
[20] = 31 g ai/ha, scale 0 to 100, 0 no effect, 100 complete control
[21] = 250 g ai/ha, visual, scale 0 no effect to 100 complete control
[22] = 125 g ai/ha, visual, scale 0 no effect to 100 complete control

CC(=O)Oc1c(C)nn(C)c(=O)c1-c1c(C)sc2c(C)cc(C)cc12 [Compound 27]
Plant response rating, Velvetleaf [1, 18]: 80
Plant response rating, Velvetleaf [1, 19]: 95
Plant response rating, Velvetleaf [1, 20]: 50
Plant response rating, Velvetleaf [1, 21]: 100
Plant response rating, Ragweed [2, 18]: 95
Plant response rating, Ragweed [2, 19]: 100
Plant response rating, Ragweed [2, 20]: 95
Plant response rating, Ragweed [2, 21]: 100
Plant response rating, Foxtail, Giant [3, 18]: 98
Plant response rating, Foxtail, Giant [3, 20]: 95
Plant response rating, Foxtail, Giant [3, 22]: 100
Plant response rating, Foxtail, Giant [3, 21]: 100
Plant response rating, Horseweed [4, 18]: 100
Plant response rating, Horseweed [4, 20]: 100
Plant response rating, Horseweed [4, 22]: 100
Plant response rating, Horseweed [4, 21]: 100
Plant response rating, Nightshade [5, 18]: 100
Plant response rating, Nightshade [5, 19]: 95
Plant response rating, Nightshade [5, 20]: 90
Plant response rating, Nightshade [5, 21]: 98
Plant response rating, Lambsquarters [6, 18]: 100
Plant response rating, Lambsquarters [6, 20]: 100
Plant response rating, Lambsquarters [6, 22]: 100
Plant response rating, Lambsquarters [6, 21]: 100
Plant response rating, Goosegrass [7, 18]: 75
Plant response rating, Goosegrass [7, 20]: 35
Plant response rating, Goosegrass [7, 22]: 80
Plant response rating, Goosegrass [7, 21]: 85
Plant response rating, Panicum, Fall [8, 18]: 100
Plant response rating, Panicum, Fall [8, 19]: 100
Plant response rating, Panicum, Fall [8, 20]: 100
Plant response rating, Panicum, Fall [8, 21]: 100
Plant response rating, Surinam Grass [9, 18]: 95
Plant response rating, Surinam Grass [9, 19]: 100
Plant response rating, Surinam Grass [9, 20]: 85
Plant response rating, Surinam Grass [9, 21]: 100
Plant response rating, Pigweed, Palmer [10, 18]: 60
Plant response rating, Pigweed, Palmer [10, 19]: 85
Plant response rating, Pigweed, Palmer [10, 21]: 85
Plant response rating, Dayflower, VA [11, 18]: 10
Plant response rating, Dayflower, VA [11, 20]: 0
Plant response rating, Dayflower, VA [11, 22]: 30
Plant response rating, Dayflower, VA [11, 21]: 65
Plant response rating, Crabgrass, Large [12, 18]: 50
Plant response rating, Crabgrass, Large [12, 20]: 35
Plant response rating, Crabgrass, Large [12, 22]: 50
Plant response rating, Crabgrass, Large [12, 21]: 90
Plant response rating, Arrowleaf Sida [13, 18]: 65
Plant response rating, Arrowleaf Sida [13, 20]: 40
Plant response rating, Arrowleaf Sida [13, 22]: 75
Plant response rating, Arrowleaf Sida [13, 21]: 35
Plant response rating, Barnyardgrass [14, 18]: 50
Plant response rating, Barnyardgrass [14, 20]: 15
Plant response rating, Barnyardgrass [14, 22]: 80
Plant response rating, Barnyardgrass [14, 21]: 95
Plant response rating, Corn [15, 18]: 0
Plant response rating, Corn [15, 20]: 0
Plant response rating, Corn [15, 22]: 0
Plant response rating, Corn [15, 21]: 0
Plant response rating, Sandbur [16, 18]: 40
Plant response rating, Sandbur [16, 19]: 90
Plant response rating, Sandbur [16, 20]: 30
Plant response rating, Sandbur [16, 21]: 90
Plant response rating, Morningglory [17, 18]: 85
Plant response rating, Morningglory [17, 19]: 90
Plant response rating, Morningglory [17, 20]: 85
Plant response rating, Morningglory [17, 21]: 100
